The values that follow come from BindingDB's records for doi:10.1021/jm701270n (National Taiwan University, 2008).

Sodium-dependent dopamine transporter, sequence (P23977 whole entry): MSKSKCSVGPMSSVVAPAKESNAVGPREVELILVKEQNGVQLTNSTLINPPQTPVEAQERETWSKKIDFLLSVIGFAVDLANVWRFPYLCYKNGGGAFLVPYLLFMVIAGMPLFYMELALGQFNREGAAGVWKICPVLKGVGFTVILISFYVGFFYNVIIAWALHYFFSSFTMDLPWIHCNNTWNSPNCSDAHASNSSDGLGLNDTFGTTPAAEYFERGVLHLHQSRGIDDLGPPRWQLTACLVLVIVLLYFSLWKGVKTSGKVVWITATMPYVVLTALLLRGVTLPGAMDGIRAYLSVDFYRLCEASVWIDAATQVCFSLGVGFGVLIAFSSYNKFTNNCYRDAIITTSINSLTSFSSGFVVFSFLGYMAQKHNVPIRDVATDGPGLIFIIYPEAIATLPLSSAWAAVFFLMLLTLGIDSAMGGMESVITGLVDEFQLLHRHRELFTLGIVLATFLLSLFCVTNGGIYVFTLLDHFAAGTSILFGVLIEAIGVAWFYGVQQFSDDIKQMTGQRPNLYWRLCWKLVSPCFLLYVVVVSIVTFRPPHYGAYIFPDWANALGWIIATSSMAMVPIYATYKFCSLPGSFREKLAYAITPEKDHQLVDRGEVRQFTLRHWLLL

The first assay concerns the target Sodium-dependent dopamine transporter (Rattus norvegicus, UniProt P23977). The experiment in a line: Radioligand Binding Assay.
Details: not given
As to the method: The assay was initiated by the addition of membranes to binding buffer containing test compound, blocker, and radioligand. The samples were incubated in triplicate. Brandel cell harvesters were used to filter the samples over Whatman GF/B filters, which were presoaked in wash buffer. The 125I retained on the filters was measured in a gamma counter.
What is called Ki is the equilibrium dissociation constant of an inhibitor or competing ligand from its target. The molecule `FC[C@H](Cc1ccccc1)N1CCN(CCOC(c2ccc(F)cc2)c2ccc(F)cc2)CC1` [1-{2-[bis(4-fluorophenyl)methoxy]ethyl}-4-[(2S)-1-fluoro-3-phenylpropan-2-yl]piperazine] displayed a Ki of 140 nM.

`CC(O)(Cc1ccccc1)CN1CCN(CCOC(c2ccccc2)c2ccccc2)CC1` (configuration not stated) [1-{4-[2-(diphenylmethoxy)ethyl]piperazin-1-yl}-2-methyl-3-phenylpropan-2-ol] gave a Ki of 150 nM.

The molecule `O=C(Cc1ccccc1)CN1CCN(CCOC(c2ccc(F)cc2)c2ccc(F)cc2)CC1` [1-(4-{2-[bis(4-fluorophenyl)methoxy]ethyl}piperazin-1-yl)-3-phenylpropan-2-one] registered a Ki of 6.5 nM.

`O=C(CN1CCN(CCOC(c2ccc(F)cc2)c2ccc(F)cc2)CC1)c1ccccc1` [2-(4-{2-[bis(4-fluorophenyl)methoxy]ethyl}piperazin-1-yl)-1-phenylethan-1-one] displayed a Ki of 54 nM. Against the preceding molecule, the Ki is about 8.3-fold higher.

`C=C(Cc1ccccc1)CN1CCN(CCOC(c2ccc(F)cc2)c2ccc(F)cc2)CC1` [1-(2-benzylprop-2-en-1-yl)-4-{2-[bis(4-fluorophenyl)methoxy]ethyl}piperazine] displayed a Ki of 100 nM. Compared with the last molecule, the Ki is about 1.9-fold higher.

`O=C(Cc1ccccc1)CN1CCN(CCOC(c2ccccc2)c2ccccc2)CC1` [1-{4-[2-(diphenylmethoxy)ethyl]piperazin-1-yl}-3-phenylpropan-2-one] registered a Ki of 10 nM.

The molecule `CC(O)(Cc1ccccc1)CN1CCN(CCOC(c2ccc(F)cc2)c2ccc(F)cc2)CC1` (configuration not stated) [1-(4-{2-[bis(4-fluorophenyl)methoxy]ethyl}piperazin-1-yl)-2-methyl-3-phenylpropan-2-ol] yielded a Ki of 57 nM.

`C=C(Cc1ccccc1)CN1CCN(CCOC(c2ccccc2)c2ccccc2)CC1` [1-(2-benzylprop-2-en-1-yl)-4-[2-(diphenylmethoxy)ethyl]piperazine]: the Ki worked out at 410 nM. This Ki is about 7.2-fold higher than that of the molecule before.

For `O=C(CN1CCN(CCOC(c2ccccc2)c2ccccc2)CC1)c1ccccc1` [2-{4-[2-(diphenylmethoxy)ethyl]piperazin-1-yl}-1-phenylethan-1-one], the Ki turned out to be 450 nM.

`FC[C@@H](Cc1ccccc1)N1CCN(CCOC(c2ccc(F)cc2)c2ccc(F)cc2)CC1` [1-{2-[bis(4-fluorophenyl)methoxy]ethyl}-4-[(2R)-1-fluoro-3-phenylpropan-2-yl]piperazine] gave a Ki of 110 nM. Against the preceding molecule, the Ki is about 4.1-fold lower.

The assay is the same for the next values; noted with them: pH 7.4; 4 °C.
For `C=C(CCN1CCN(CCOC(c2ccccc2)c2ccccc2)CC1)c1ccccc1` [1-[2-(diphenylmethoxy)ethyl]-4-(3-phenylbut-3-en-1-yl)piperazine], the Ki was 30 nM.

On to `C[C@H](Cc1ccccc1)CN1CCN(CCOC(c2ccc(F)cc2)c2ccc(F)cc2)CC1` [1-[(2R)-2-benzylpropyl]-4-{2-[bis(4-fluorophenyl)methoxy]ethyl}piperazine], for which the Ki was 17 nM.

With `CC(O)(CCN1CCN(CCOC(c2ccc(F)cc2)c2ccc(F)cc2)CC1)c1ccccc1` (configuration not stated) [4-(4-{2-[bis(4-fluorophenyl)methoxy]ethyl}piperazin-1-yl)-2-phenylbutan-2-ol], affinity was put at a Ki of 4 nM.

`N[C@H](Cc1ccccc1)CN1CCN(CCOC(c2ccc(F)cc2)c2ccc(F)cc2)CC1` [(2R)-1-(4-{2-[bis(4-fluorophenyl)methoxy]ethyl}piperazin-1-yl)-3-phenylpropan-2-amine]: the Ki came to 20 nM.

Regarding `CC(O)(CCN1CCN(CCOC(c2ccccc2)c2ccccc2)CC1)c1ccccc1` (configuration not stated) [4-{4-[2-(diphenylmethoxy)ethyl]piperazin-1-yl}-2-phenylbutan-2-ol], the affinity corresponds to a Ki of 7 nM.

The molecule `N[C@@H](Cc1ccccc1)CN1CCN(CCOC(c2ccc(F)cc2)c2ccc(F)cc2)CC1` [(2S)-1-(4-{2-[bis(4-fluorophenyl)methoxy]ethyl}piperazin-1-yl)-3-phenylpropan-2-amine] came in with a Ki of 39 nM. Compared with the last molecule, the Ki is about 5.6-fold higher.

With `C=C(CCN1CCN(CCOC(c2ccc(F)cc2)c2ccc(F)cc2)CC1)c1ccccc1` [1-{2-[bis(4-fluorophenyl)methoxy]ethyl}-4-(3-phenylbut-3-en-1-yl)piperazine], the Ki came to 18 nM.

Molecule `C[C@@H](Cc1ccccc1)CN1CCN(CCOC(c2ccc(F)cc2)c2ccc(F)cc2)CC1` [1-[(2S)-2-benzylpropyl]-4-{2-[bis(4-fluorophenyl)methoxy]ethyl}piperazine] gave a Ki of 17 nM.

On to `Fc1ccc(C(OCCN2CCN(C[C@H](F)Cc3ccccc3)CC2)c2ccc(F)cc2)cc1` [1-{2-[bis(4-fluorophenyl)methoxy]ethyl}-4-[(2R)-2-fluoro-3-phenylpropyl]piperazine], for which the affinity, expressed as Ki, was 22 nM.

`CO[C@@H](Cc1ccccc1)CN1CCN(CCOC(c2ccc(F)cc2)c2ccc(F)cc2)CC1` [1-{2-[bis(4-fluorophenyl)methoxy]ethyl}-4-[(2S)-2-methoxy-3-phenylpropyl]piperazine] displayed an inhibition constant Ki of 29 nM. This Ki and that of the molecule before are within 1.5-fold of each other.

Regarding `Fc1ccc(C(OCCN2CCN(C[C@@H](F)Cc3ccccc3)CC2)c2ccc(F)cc2)cc1` [1-{2-[bis(4-fluorophenyl)methoxy]ethyl}-4-[(2S)-2-fluoro-3-phenylpropyl]piperazine], the Ki worked out at 2.7 nM.

Take `CO[C@H](Cc1ccccc1)CN1CCN(CCOC(c2ccc(F)cc2)c2ccc(F)cc2)CC1` [1-{2-[bis(4-fluorophenyl)methoxy]ethyl}-4-[(2R)-2-methoxy-3-phenylpropyl]piperazine]: the affinity, expressed as Ki, was 27 nM. Compared with the last molecule, the Ki is about 10-fold higher.
